In patent US20240368123A1, “AROMATIC RING-CONTAINING BIOLOGICAL ANTAGONIST, AND PREPARATION METHOD THEREFOR AND USE THEREOF” (SHANGHAI HANSOH BIOMEDICAL CO., LTD., priority 2021, published 2024) one finds IC50 data, which are given here for six molecules.

The experiment concerns the target T1, AT1 receptors (Homo sapiens, UniProt P30556).
T1 construct: host or cells: HEK293
T1 sequence (P30556 1-359): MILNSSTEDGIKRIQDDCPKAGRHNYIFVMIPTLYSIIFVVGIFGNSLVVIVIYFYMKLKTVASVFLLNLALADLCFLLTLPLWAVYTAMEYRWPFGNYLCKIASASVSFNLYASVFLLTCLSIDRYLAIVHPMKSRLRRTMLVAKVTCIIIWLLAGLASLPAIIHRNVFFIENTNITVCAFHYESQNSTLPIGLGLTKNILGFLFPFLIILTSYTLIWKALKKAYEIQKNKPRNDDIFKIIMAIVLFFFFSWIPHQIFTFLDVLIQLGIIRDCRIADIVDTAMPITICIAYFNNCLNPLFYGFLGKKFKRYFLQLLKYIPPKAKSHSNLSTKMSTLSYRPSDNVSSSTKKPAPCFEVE
Kind of experiment: Effect on calcium current in cells stably expressing AT1 receptors (FLIPR, antagonist mode). It counts as cell-based. The following applies: HEK293-AT1 cells, Fluo-8 AM, FLIPR Tetra; read-out: IC50 values of compounds on calcium current in cells stably expressing AT1 receptors. The source says: Test Example 1. Determination of the Effect of the Compounds of the Present Invention on Calcium Current in Cells Stably Expressing AT1 Receptors
Antagonistic effect of test compounds on HEK293-AT1 cell activity
• DMEM, high glucose (Gibco: 12100); • Fetal bovine serum (Biosera: FB-1058/500); • P/S (Biosera: XC-A4122); • 5× Matrigel (Corning: 354230); • HBSS (Sigma: H1387); • HEPES (Invitrogen: 15630080); • Fluo-8 AM (AAT Bioquest: 21080); • Probenecid (Sigma: P8761); • Pluronic F-127 (Sigma: P2443-250G); • Angiotensin III TFA (MCE: HY-113035A); • Irbesartan (MCE: HY—B0202); • 1000× Fluo-8 AM (2 mM): Fluo-8 AM was dissolved in DMSO, the mixture was shaken for 1-2 min, sub-packaged and stored at −20° C.; • Complete culture medium: DMEM+10% FBS+1×P/S; • Cell seeding medium: DMEM+10% FBS+1×PS; • Experimental buffer 1: 1×HBSS+20 mM HEPES+1 mM Probenecid+0.025% Pluronic F-127; • Experimental buffer 2: 1×HBSS+20 mM HEPES+0.075% Pluronic F-127; • 1× Matrigel: 5× Matrigel was diluted with DMEM; • Cell line: HDB HEK293-AT1.
• 1) HEK293-AT1 cell line was cultured in complete culture medium at 37° C., 5% CO2 to 70%-90% confluence. • 2) the 384-well cell plate was coated with 1× Matrigel with 5 μL/well at room temperature for 10 to 30 min. • 3) the cells were digested and resuspended in cell seeding medium, inoculation was performed at 8,000 cells/well/20 μL in a 384-well cell culture plate, and the cells were cultured at 37° C., 5% CO2 for 24 h. • 4) the cell culture plate was taken out of the CO2 incubator and equilibrated at room temperature for 10 min. • 5) 1000× Fluo-8 AM was taken and diluted to 1× Fluo-8 AM with experimental buffer 1 that has been equilibrated to room temperature, with a concentration of 2 μM. • 6) the culture medium was removed from the cell culture plate, 20 μL of 1× Fluo-8 AM was added to each well, the mixture was centrifuged at 300 rpm for 60 seconds at room temperature, and incubated at room temperature in the dark for 1 h. • 7) positive control compound and test compound working solution (3×) were formulated: • (1) instrument Bravo was used to dilute the compound to 11 concentration points on the 384-well Echo compound plate (LABCYTE: LP-0200); • (2) instrument ECHO was used to transfer 90 nL of compound per well (compound storage concentration, such as the highest concentration point 10 mM) to the 384-well compound plate (PE: 6008590); • (3) Multidrop Combi was used to add 30 μL of experimental buffer 2 to the 384-well compound plate (PE: 6008590), the positive control compound and test compound were diluted to 30 μM (3×), and placed at room temperature until use. • 8) FLIPR Tetra was used to add 10 μL of diluted 3× compound into the experimental well of the corresponding 384-well cell plate, the compound and cells were incubated for 10 min at room temperature, then 10 μL of diluted 4× agonist was added, and the data was read and collected at the same time.
FLIPR Tetra was used to read and collect the fluorescence signal value (RFU). The maximum RFU value was used to calculate the percent activation data based on the readings of the Low control (DMSO control) and High control (100 nM positive compound) experimental groups {% activation rate=(RFUsample−RFUlow control)/(RFUhigh control−RFUlow control)×100}. The concentration of the test compound was 11 concentrations after diluting the reaction system 3 times, ranging from 10 uM to 0.17 nM.
With `CCCCC1=NC2(CCCCC2)C(=O)N1Cc1ccc(-c2ccccc2S(=O)(=O)Nc2noc(C)c2Cl)c(COCC)c1` [Example 68, 4′-((2-2-4-4-oxo-1,3-diazaspiro[4.5]dec-1-en-3-yl)methyl)-N-(4-chloro-5-methylisoxazol-3-yl)-2′-(ethoxymethyl)-[1,1′-biphenyl]-2-sulfonamide], the IC50 amounted to 8.8 nM.
As to `CCCCC1=NC2(CC3CC3C2)C(=O)N1Cc1ccc(-c2ccccc2S(=O)(=O)Nc2noc(C)c2Cl)c(COCC)c1` (stereo not drawn) [Example 65, 4′-((2′-butyl-5′-oxaspiro[bicyclo[3.1.0]hexane-3,4′-imidazole]-1′(5′H)-yl)methyl)-N-(4-chloro-5-methylisoxazol-3-yl)-2′-(ethoxymethyl)-[1,1′-biphenyl]-2-sulfonamide], the IC50 came out at 4.4 nM.
`CCCCC1=NC2(CCCC2)C(=O)N1Cc1ccc(-c2ccccc2S(=O)(=O)Nc2noc(C)c2Br)c(COCC)c1` [Example 46, 2-[4-[(2-butyl-4-oxo-1,3-diazaspiro[4.4]non-1-en-3-yl)methyl]-2-(ethoxymethyl)phenyl]-N-(4-bromo-5-methyl-isoxazol-3-yl)benzsulfamide]: the IC50 was found to be 3.9 nM.
`[2H]C([2H])(OCC)c1cc(CN2C(=O)C3(CCCC3)N=C2CCCC)ccc1-c1ccccc1S(=O)(=O)Nc1noc(C)c1Cl` [Example 49, 4′-((2-butyl-4-oxo-1,3-diazospiro[4.4]non-1-en-3-yl)methyl)-N-(4-chloro-5-methylisoxazol-3-yl)-2′-(ethoxydeuteriummethyl)-[1,1′-biphenyl]-2-sulfonamide]: the IC50 amounted to 7.2 nM.
On to `CCCCC1=NC2(CCCC2)C(=O)N1Cc1ccc(-c2ccccc2S(=O)(=O)Nc2noc(C)c2Cl)c(COCC(F)(F)F)c1` [Example 86], for which the IC50 worked out at 2.2 nM.
As to `CCCCC1=NC2(CC3CC3C2)C(=O)N1Cc1ccc(-c2ccccc2S(=O)(=O)Nc2noc(C)c2C)c(COCC)c1` (stereo not drawn) [Example 87, 4′-((2′-butyl-5′-oxaspiro[bicyclo[3.1.0]hexane-3,4′-imidazole]-1′(5′H)-yl)methyl)-N-(4,5-dimethylisoxazol-3-yl)-2′-(ethoxymethyl)-[1,1′-biphenyl]-2-sulfonamide], the IC50 is 9.6 nM.

In general, IC50 refers to the concentration at which inhibition is half-maximal.
